According to US20060154891A1, “Ready-to-use gemcitabine solutions and gemcitabin concentrates” (priority 2004, published 2006):
Where a name gives a salt, the structure may show the parent alone. Read-outs that look alike come from different tables or passages of the source.

Assays:
[1] = Concentration at which gemcitabine hydrochloride forms a clear solution at room temperature; format: physicochemical
Experimental: At room temperature, gemcitabine hydrochloride forms a clear solution at a concentration of about 40 mg/milliliter in a strong, aqueous hydrochloric acid solution (pH approximately 3, reconstituted Gemzar® lyophilisate, Eli Lilly) or at a concentration of about 15 mg/mL in an aqueous, weakly alkaline solution having a pH of about 8, and at a concentration of up to 110 mg/mL in an alkaline, ethanolic, aqueous solution with a pH of approximately 10.

[2] = room temperature; strong, aqueous hydrochloric acid solution, pH approximately 3, reconstituted Gemzar lyophilisate; cited from earlier work
[3] = pH range from 3 to 10 investigated; EP 1 479 389 A1; cited from earlier work

SMILES | Concentration forming a clear solution ([1]; alkaline, ethanolic, aqueous solution, pH of approximately 10) | Concentration forming a clear solution ([1]; aqueous, weakly alkaline solution, pH of about 8) | Concentration forming a clear solution [2] | pH described as optimum for stability in aqueous solution [3]
Nc1ccn([C@@H]2O[C@H](CO)[C@@H](O)C2(F)F)c(=O)n1 [gemcitabine hydrochloride] | up to 110 mg/mL | about 15 mg/mL | about 40 mg/milliliter | 
Nc1ccn([C@@H]2O[C@H](CO)[C@@H](O)C2(F)F)c(=O)n1 [gemcitabine, 2′-deoxy-2′,2′-difluorocytidine] |  |  |  | about 8
